# Data taken from US20250155433A1, “FLUORESCENT SENSORS FOR DETECTION OF SIDEROPHORES AND OTHER MOLECULES PRODUCED BY BACTERIAL PATHOGENS” (Kansas State University Research Foundation, priority 2021, published 2025).
# Tests used:
# [1] = target: KpnFepA2380; assay: Fluorescence quenching binding to KpnFepA2380-FM sensor; set-up: species or system Klebsiella pneumoniae; conditions: ferric complexes; Cys residue T255C, FM-labeled; NB = no binding; read-out: Affinity (KD) of sensor KpnFepA 2380
# Procedure: (§1) Fluorescence modifications. For modifications with maleimide fluorophores, we inoculated E. coli strains OKN3, OKN13, OKN359 or OKN1359, harboring plasmids that encoded a Cys mutant LGP, from frozen stocks into LB, grew them overnight and sub-cultured at 1% into iron-deficient MOPS minimal media, with shaking (200 rpm) at 37° C. for 10-12 h, until late exponential phase. After collecting the cells by centrifugation at 7500×g for 15 min, and washing with 50 mM NaHPO4, pH 6.7, we labeled the Cys-mutant LGP with 5 μM FM in 50 mM NaHPO4, pH 6.7 for 15 min at 37° C. FM. We terminated the labeling reactions with 100 μM β-mercaptoethanol. […] After electrophoresis, we first visualized the fluorescence labeling on a Typhoon 8600 Biomolecular Scanner (GE/Amersham), and then stained the gels with Coomassie blue R (153).
# (§2) Fluorescence spectroscopic binding determinations. We observed fluorophore-labeled cells in an SLM AMINCO 8100 fluorescence spectrometer, upgraded with an OLIS operating system and software (OLIS SpectralWorks, OLIS Inc., Bogart, GA), to control its shutters, polarizers and data collection. We also utilized an OLIS Clarity fluorescence spectrometer for fluorescence assays. […] We performed each measurement in triplicate and calculated the mean value of F/F0 at each ligand concentration. […]
# [2] = target: T1, PaeFpvA (Pseudomonas aeruginosa, UniProt P48632, T660C); assay: Fluorescence quenching binding to PaeFpvA-FM sensor; conditions: secondary ligands
# T1 construct: expressed in transfected cells; host or cells: E. coli OKN3/OKN13/OKN359/OKN1359 carrying a pITS23 derivative
# Procedure: as §1, §2
# [3] = tested on: CRE/ESKAPE pathogens; assay: Decoy sensor measurements of metal complex uptake by bacteria; format: cell-based; conditions: iron deficient Gram (−) bacteria with maximally expressed chromosomal FepA
# Text: Fluorescence spectroscopic uptake measurements. We employed FD sensors to monitor TonB-dependent uptake of various siderophores by bacterial pathogens. In the fluorescence spectroscopic uptake studies E. coli OKN13 (ΔtonB, ΔfepA) or OKN1359 (ΔtonB, Δfiu, ΔfepA, Δcir) were host strains for pITS23 derivatives carrying single Cys mutants of an LGP of interest. The FLGP were decoy sensors that monitored ferric siderophore uptake by test strains. For each assay we used 10^7 sensor cells (e.g., OKN13/pFepA-FM (53)) in a 2 mL quartz cuvette containing PBS+0.2% glucose at 37° C. After recording fluorescence intensity for 100 seconds, we added an iron complex (e.g., FeEnt) at a final concentration of ˜10 nM. After incubating the sample for 100 seconds, during which time fluorescence was quenched (e.g., ˜60% quenching for EcoFepA_A698C-FM), we added 0.5-2×10^7 cells of the test strain (E. coli MG1655, K. pneumoniae Kp52.145, A. baumannii 17978, P. aeruginosa PA01, E. cloacae) and monitored the time-course of fluorescence emissions at 520 nm for 15-40 minutes, with stirring.
# [4] = target: AbaPiuA (Acinetobacter baumannii, UniProt D0CAH3, S724C); assay: Fluorescence quenching binding to AbaPiuA-FM sensor
# Procedure: as §1, with “β-mercaptoethanol. After collecting the fluoresceinated cells by centrifugation at 7500×g for 15 min, and washing with 50 mM NaHPO4, pH 6.7, we re-suspended them in PBS plus 0.2% glucose. We either immediately used the labeled cells in spectroscopic experiments, or rested them on ice (up to 24 h), or added glycerol to 15% and stored them (indefinitely) as 1 mL aliquots at −70° C.” for “β-mercaptoethanol.”
# Fluorescence spectroscopic binding determinations. We observed fluorophore-labeled cells in an SLM AMINCO 8100 fluorescence spectrometer, upgraded with an OLIS operating system and software (OLIS SpectralWorks, OLIS Inc., Bogart, GA), to control its shutters, polarizers and data collection. We also utilized an OLIS Clarity fluorescence spectrometer for fluorescence assays. For binding determinations we deposited 2.5×10^7 labeled cells in a quartz cuvette (final volume, 2 mL) with stirring at 37° C., measured the initial fluorescence (F0), and then added increasing concentrations of an iron complex while monitoring the quenching of fluorescence emissions (F) at 520 nm. We performed each measurement in triplicate and calculated the mean value of F/F0 at each ligand concentration. […]
# Table 1 lists KD values from analysis of fluorescence quenching with ferric or apo (parenthetic values) siderophores or porphyrins. […]
# [5] = target: T2, EcoCir (Escherichia coli, UniProt P17315, G512C); assay: biochemical; format: binding
# T2 construct: expressed in transfected cells; host or cells: E. coli OKN3/OKN13/OKN359/OKN1359 carrying a pITS23 derivative
# T2 sequence (P17315 26-663 G512C): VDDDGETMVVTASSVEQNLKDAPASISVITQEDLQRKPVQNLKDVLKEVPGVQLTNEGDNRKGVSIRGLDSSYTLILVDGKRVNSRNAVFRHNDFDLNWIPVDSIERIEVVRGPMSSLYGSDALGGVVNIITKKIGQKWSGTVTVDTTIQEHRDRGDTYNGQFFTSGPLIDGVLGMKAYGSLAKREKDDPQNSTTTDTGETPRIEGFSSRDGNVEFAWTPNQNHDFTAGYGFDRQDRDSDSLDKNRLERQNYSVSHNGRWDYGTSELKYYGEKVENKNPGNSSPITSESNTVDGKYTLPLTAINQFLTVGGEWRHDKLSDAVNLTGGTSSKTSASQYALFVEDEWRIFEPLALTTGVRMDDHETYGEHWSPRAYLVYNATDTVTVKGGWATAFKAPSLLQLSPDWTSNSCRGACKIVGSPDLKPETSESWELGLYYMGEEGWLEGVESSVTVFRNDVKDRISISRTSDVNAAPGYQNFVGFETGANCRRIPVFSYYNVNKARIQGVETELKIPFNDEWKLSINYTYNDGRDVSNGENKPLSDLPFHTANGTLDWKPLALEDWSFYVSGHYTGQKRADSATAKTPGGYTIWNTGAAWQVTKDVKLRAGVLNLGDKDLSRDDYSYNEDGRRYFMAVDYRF
# Procedure: (§3) Fluorescence modifications. For modifications with maleimide fluorophores, we inoculated E. coli strains OKN3, OKN13, OKN359 or OKN1359, harboring plasmids that encoded a Cys mutant LGP, from frozen stocks into LB, grew them overnight and sub-cultured at 1% into iron-deficient MOPS minimal media, with shaking (200 rpm) at 37° C. for 10-12 h, until late exponential phase. After collecting the cells by centrifugation at 7500×g for 15 min, and washing with 50 mM NaHPO4, pH 6.7, we labeled the Cys-mutant LGP with 5 μM FM in 50 mM NaHPO4, pH 6.7 for 15 min at 37° C. FM. We terminated the labeling reactions with 100 μM β-mercaptoethanol. After collecting the fluoresceinated cells by centrifugation at 7500×g for 15 min, and washing with 50 mM NaHPO4, pH 6.7, we re-suspended them in PBS plus 0.2% glucose. We either immediately used the labeled cells in spectroscopic experiments, or rested them on ice (up to 24 h), or added glycerol to 15% and stored them (indefinitely) as 1 mL aliquots at −70° C. In the latter case, after thawing the labeled cells we pelleted them by centrifugation in a microfuge, washed them once with and re-suspended them in PBS containing 0.2% glucose. Lastly, for evaluation of protein expression or the extent of FM-labeling we solubilized aliquots of the cell suspensions with sample buffer, and subjected them to SDS-PAGE. After electrophoresis, we first visualized the fluorescence labeling on a Typhoon 8600 Biomolecular Scanner (GE/Amersham), and then stained the gels with Coomassie blue R (153).
# (§4) Fluorescence spectroscopic binding determinations. We observed fluorophore-labeled cells in an SLM AMINCO 8100 fluorescence spectrometer, upgraded with an OLIS operating system and software (OLIS SpectralWorks, OLIS Inc., Bogart, GA), to control its shutters, polarizers and data collection. We also utilized an OLIS Clarity fluorescence spectrometer for fluorescence assays. For binding determinations we deposited 2.5×10^7 labeled cells in a quartz cuvette (final volume, 2 mL) with stirring at 37° C., measured the initial fluorescence (F0), and then added increasing concentrations of an iron complex while monitoring the quenching of fluorescence emissions (F) at 520 nm. We performed each measurement in triplicate and calculated the mean value of F/F0 at each ligand concentration. We plotted 1−F/F0 vs [ligand] and analyzed the data by the 1-site binding model of Grafit 6.0.12 (Erithacus Ltd. West Sussex, UK), that fits data to a single site saturation curve, where the amount of ligand bound is plotted as a function of the amount free:
# (§5) These plots yielded KD values for each of the receptor-ligand interactions, with associated standard errors.
# (§6) Table 1 lists KD values from analysis of fluorescence quenching with ferric or apo (parenthetic values) siderophores or porphyrins. For each determination, we measured the extent of fluorescence quenching of an FLGP, when exposed to sequentially increasing concentrations of the listed metal complexes, as plotted in FIGS. 2-4. We performed each experiment 2 or 3 times. The tabulated KD values are from single, representative experiments, in which we collected each data point in triplicate, plotted F/F0 vs [ligand] for each quenching titration, and fitted the curves to a single site binding model using Grafit 6.012 (Erithacus Ltd, […], UK).
# [6] = target: T3, EcoFiu (Escherichia coli, UniProt P75780, A694C); assay: biochemical; format: binding
# T3 construct: expressed in transfected cells; host or cells: E. coli OKN3/OKN13/OKN359/OKN1359 carrying a pITS23 derivative
# T3 sequence (P75780 32-760 A694C): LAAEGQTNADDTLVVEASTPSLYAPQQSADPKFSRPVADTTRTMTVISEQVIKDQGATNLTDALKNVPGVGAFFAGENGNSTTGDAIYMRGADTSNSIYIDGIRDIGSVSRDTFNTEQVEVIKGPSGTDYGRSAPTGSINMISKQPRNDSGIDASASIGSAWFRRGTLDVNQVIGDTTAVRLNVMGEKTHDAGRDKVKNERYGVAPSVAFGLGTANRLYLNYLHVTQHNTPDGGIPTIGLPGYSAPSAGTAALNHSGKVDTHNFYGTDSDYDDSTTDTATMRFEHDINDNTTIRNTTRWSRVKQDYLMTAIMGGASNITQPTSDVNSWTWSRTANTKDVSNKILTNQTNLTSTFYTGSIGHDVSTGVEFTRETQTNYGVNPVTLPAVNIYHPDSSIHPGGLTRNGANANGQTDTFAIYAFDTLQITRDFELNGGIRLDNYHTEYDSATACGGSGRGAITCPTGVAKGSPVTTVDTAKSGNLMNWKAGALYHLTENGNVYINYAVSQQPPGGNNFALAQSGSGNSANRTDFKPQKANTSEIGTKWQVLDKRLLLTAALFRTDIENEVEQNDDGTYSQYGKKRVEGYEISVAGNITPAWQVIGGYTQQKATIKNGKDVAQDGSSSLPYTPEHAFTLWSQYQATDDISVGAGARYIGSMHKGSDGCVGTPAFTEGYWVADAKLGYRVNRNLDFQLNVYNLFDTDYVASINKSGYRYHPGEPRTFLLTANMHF
# Procedure: as §3, §4, §5, §6
# [7] = target: KpnIroN (Klebsiella pneumoniae, UniProt A0ACD7U953, T234C); assay: Fluorescence quenching binding to KpnIroN-FM sensor; conditions: read-out: Affinity (KD) of sensor KpnIroN; ferric complexes; Cys residue T210C, FM-labeled; NB = no binding
# Procedure: as §1, §2
# [8] = target: T4, AbaPirA (Acinetobacter baumannii, UniProt D0C8V9); conditions: read-out: Affinity (KD) of sensor AbaPirA; ferric complexes; Cys residue S328C, FM-labeled; NB = no binding
# T4 construct: fused on or other part: EcoFepA signal peptide in place of its own (cleaved on export); fluorescein maleimide on the engineered Cys
# Procedure: For modifications with maleimide fluorophores, we inoculated E. coli strains OKN3, OKN13, OKN359 or OKN1359, harboring plasmids that encoded a Cys mutant LGP, from frozen stocks into LB, grew them overnight and sub-cultured at 1% into iron-deficient MOPS minimal media, with shaking (200 rpm) at 37° C. for 10-12 h, until late exponential phase. After collecting the cells by centrifugation at 7500×g for 15 min, and washing with 50 mM NaHPO4, pH 6.7, we labeled the Cys-mutant LGP with 5 μM FM in 50 mM NaHPO4, pH 6.7 for 15 min at 37° C. […] We terminated the labeling reactions with 100 μM β-mercaptoethanol. […]
# We also utilized an OLIS Clarity fluorescence spectrometer for fluorescence assays. […] We performed each measurement in triplicate and calculated the mean value of F/F0 at each ligand concentration. We plotted 1−F/F0 vs [ligand] and analyzed the data by the 1-site binding model of Grafit 6.0.12 (Erithacus Ltd. West Sussex, UK), that fits data to a single site saturation curve, where the amount of ligand bound is plotted as a function of the amount free:
# For each determination, we measured the extent of fluorescence quenching of an FLGP, when exposed to sequentially increasing concentrations of the listed metal complexes, as plotted in FIGS. 2-4. […]
# [9] = target: AbaBauA (Acinetobacter baumannii, UniProt Q76HJ9, S407C); assay: Fluorescence quenching binding to AbaBauA-FM sensor
# Procedure: as §1, §2
compound,measurement,setting,value
"O=C(N[C@H]1COC(=O)[C@@H](NC(=O)c2cccc([O-])c2[O-])COC(=O)[C@@H](NC(=O)c2cccc([O-])c2[O-])COC1=O)c1cccc([O-])c1[O-].[Fe+3] [FeEnt, ferric enterobactin]",Kd,[1],12.8 µM
same,Binding by PaeFpvA,[2],weakly bound
same,Transport rate,[3],~50 pMol/10^9 cells/min
CC(C)(O/N=C(\C(=O)N[C@@H]1C(=O)N2C(C(=O)[O-])=C(C[N+]3(CCNC(=O)c4ccc([O-])c([O-])c4Cl)CCCC3)CS[C@H]12)c1csc(N)n1)C(=O)[O-].[Fe+3] [FeFDC],Kd,[4],57 µM
same,Kd,[5],0.06 µM
same,Kd,[6],0.54 µM
same,Kd,[7],0.58 µM
same,Kd,[8],4.8 µM
same,Kd,[9],181 µM
O=C(N[C@H]1COC(=O)[C@@H](NC(=O)c2cc([C@@H]3O[C@H](CO)[C@@H](O)[C@H](O)[C@H]3O)cc(O)c2[O-])COC(=O)[C@@H](NC(=O)c2cc([C@@H]3O[C@H](CO)[C@@H](O)[C@H](O)[C@H]3O)cc(O)c2[O-])COC1=O)c1cccc(O)c1[O-].[Fe+3] [FeGEnt],Binding by AbaPiuA,[4],did not bind
